Experimental data taken from the NIST ThermoML archive (doi:10.1021/je100734t).
± gives the expanded uncertainty stated by the source.

Assay: xn = mol fraction of the nth substance listed
Conditions: 101 kPa, Liquid; for speed of sound: Pulse-echo method

CCCCCCCCCO [nonan-1-ol] + Cc1cccc(C)c1
Conditions | mass density, 293.15 K [kg/m3] | mass density, 303.15 K [kg/m3] | mass density, 313.15 K [kg/m3] | speed of sound, 293.15 K [m/s] | speed of sound, 303.15 K [m/s] | speed of sound, 313.15 K [m/s]
x2 = 0 | 827.7 ± 0.43 | 820.82 ± 0.44 | 813.88 ± 0.45 | 1381 ± 2 | 1347 ± 2 | 1314 ± 2
x2 = 0.066 | 829.52 ± 0.43 | 822.53 ± 0.44 | 815.47 ± 0.45 | 1378 ± 2 | 1343 ± 2 | 1310 ± 2
x2 = 0.127 | 831.23 ± 0.43 | 824.14 ± 0.44 | 816.98 ± 0.45 | 1375 ± 2 | 1340 ± 2 | 1306 ± 2
x2 = 0.1739 | 832.57 ± 0.43 | 825.39 ± 0.44 | 818.16 ± 0.45 | 1373 ± 2 | 1337 ± 2 | 1302 ± 2
x2 = 0.2461 | 834.67 ± 0.44 | 827.36 ± 0.45 | 820.01 ± 0.46 | 1368 ± 2 | 1332 ± 2 | 1297 ± 2
x2 = 0.2913 | 836.03 ± 0.44 | 828.63 ± 0.45 | 821.21 ± 0.46 | 1365 ± 2 | 1328 ± 2 | 1293 ± 2
x2 = 0.3635 | 838.25 ± 0.44 | 830.72 ± 0.45 | 823.17 ± 0.46 | 1361 ± 2 | 1323 ± 2 | 1287 ± 2
x2 = 0.4422 | 840.77 ± 0.45 | 833.1 ± 0.46 | 825.42 ± 0.47 | 1355 ± 2 | 1317 ± 2 | 1281 ± 2
x2 = 0.4872 | 842.27 ± 0.45 | 834.52 ± 0.46 | 826.76 ± 0.47 | 1353 ± 2 | 1314 ± 2 | 1277 ± 2
x2 = 0.5648 | 844.95 ± 0.45 | 837.08 ± 0.46 | 829.18 ± 0.48 | 1348 ± 2 | 1309 ± 2 | 1272 ± 2
x2 = 0.6251 | 847.15 ± 0.46 | 839.19 ± 0.47 | 831.18 ± 0.48 | 1345 ± 2 | 1305 ± 2 | 1268 ± 2
x2 = 0.6873 | 849.54 ± 0.46 | 841.47 ± 0.47 | 833.35 ± 0.48 | 1342 ± 2 | 1302 ± 2 | 1264 ± 2
x2 = 0.7713 | 853 ± 0.47 | 844.78 ± 0.48 | 836.5 ± 0.49 | 1339 ± 2 | 1299 ± 2 | 1260 ± 2
x2 = 0.8507 | 856.56 ± 0.47 | 848.19 ± 0.48 | 839.76 ± 0.5 | 1338 ± 2 | 1298 ± 2 | 1258 ± 2
x2 = 0.9284 | 860.34 ± 0.48 | 851.84 ± 0.49 | 843.28 ± 0.5 | 1339 ± 2 | 1298 ± 2 | 1257 ± 2
